Tests used:
[1] = system: KG1a cells; experiment: Rescue from SACLAC-induced apoptosis by Mcl-1S knockdown; assay type: cell-based, human; settings: 10 μM SACLAC 48 hours; siRNA (100 nM) targeting MCL-1S vs scrambled
Procedure: Apoptosis in cell lines was assessed after treating 2.5×10^5 cells per ml with drug or vehicle in a 48-well plate for the indicated time points and doses. Primary human AML cells were pre-incubated with SFEM for 48 hours before plating 2×10^5 cells in 24-well plates for the indicated times point and doses. Samples were stained using the Muse Annexin V & Dead Cell Kit (Millipore #MCH100105). Change in mitochondrial membrane potential in cell lines was measured with the Muse® MitoPotential Kit (#MCH100110, MilliporeSigma, Burlington, Mass., United States of America). Caspase activation was measured using the Muse® Caspase 3/7 Assay Kit (#MCH100108, MilliporeSigma, Burlington, Mass., United States of America). For rescue experiments, cells were plated at 2.5×10^4 well in a 96-well plate 24 hours after electroporation. Cells were treated with DMSO or SACLAC for 48 hours and apoptosis was detected as stated above. All kits were used according to manufacturer's protocol. Cells were then analyzed using the Muse® Cell Analyzer (MilliporeSigma, Burlington, Massachusetts, United States of America) (35,36). Experiments included positive and negative controls for proper analysis. […]

[2] = system: OCI-AML2 cells; experiment: Caspase 3/7 activation; assay type: cell-based, human; settings: increasing doses; 24 hours
Procedure: Apoptosis in cell lines was assessed after treating 2.5×10^5 cells per ml with drug or vehicle in a 48-well plate for the indicated time points and doses. Primary human AML cells were pre-incubated with SFEM for 48 hours before plating 2×10^5 cells in 24-well plates for the indicated times point and doses. Samples were stained using the Muse Annexin V & Dead Cell Kit (Millipore #MCH100105). Change in mitochondrial membrane potential in cell lines was measured with the Muse® MitoPotential Kit (#MCH100110, MilliporeSigma, Burlington, Mass., United States of America). Caspase activation was measured using the Muse® Caspase 3/7 Assay Kit (#MCH100108, MilliporeSigma, Burlington, Mass., United States of America). For rescue experiments, cells were plated at 2.5×10^4 well in a 96-well plate 24 hours after electroporation. Cells were treated with DMSO or […] for 48 hours and apoptosis was detected as stated above. All kits were used according to manufacturer's protocol. Cells were then analyzed using the Muse® Cell Analyzer (MilliporeSigma, Burlington, Massachusetts, United States of America) (35,36). Experiments included positive and negative controls for proper analysis.

[3] = system: OCI-AML2; experiment: Cell viability MTS assay; assay type: cell-based; settings: Homo sapiens, 24-hour treatment
Procedure: (§1) For cell viability, cell lines were plated at 2.5×10^4 cells per well in a 96-well plate and treated with […] or DMSO vehicle (0.4% of total volume) for the indicated time points and doses. At the experiment end point, 3-(4,5-Dimethylthiazol-2-yl)-5-(3-carboxymethoxyphenyl)-2-(4-sulfophenyl)-2H-tetrazolium (MTS) Cell Proliferation Colorimetric Assay Kit (# K300-5000, BioVision, Inc., Milpitas, Calif., United States of America) reagent was added and incubated for 2 hours. Conversion of MTS to formazan product was measured by absorbance at 490 nm using a BioTek Cytation 3 plate reader (BioTeck, Winooski, Vt., United States of America). Absorbance was normalized to DMSO control, which was defined as 100% viability. Due to limited cell numbers, patient samples and normal samples were plated at 5×10^3 cells per well in a 384-well plate with […] or DMSO control for the indicated time points and doses. At the experiment end point, a luminescent reagent sold under the tradename [sequence]-GLOTM (#G7572, Promega Corporation, Madison, Wis., United States of America) was added. After 15 minutes, luminescence was read on a BioTek Cytation 3 plate reader (BioTek, Winooski, Vt., United States of America). Absorbance was normalized to DMSO control, which was defined as 100% viability.

[4] = system: HL-60/VCR; experiment: Cell viability MTS assay; assay type: cell-based; settings: Homo sapiens, HL60/VCR; 24-hour treatment
Procedure: as §1

[5] = system: THP-1; experiment: Cell viability MTS assay; assay type: cell-based; settings: Homo sapiens, 24-hour treatment
Procedure: as §1

## CCCCCCCCCCCCCCC[C@@H](O)[C@H](CO)NC(=O)CCl [SACLAC, N-[(2S,3R)-1,3-dihydroxyoctadecan-2-yl]2-chloroacetamide]
[1]
  apoptosis induction reduced by, in Mcl-1S knockdown cells: 36%
[2]
  caspase 3/7 activation: dose-dependent caspase activation
[3]
  EC50: 1.8 µM
[4]
  EC50: 3.3 µM
[5]
  EC50: 2.6 µM

— US20220387358A1, “CERAMIDE ANALOG SACLAC MODULATES SPHINGOLIPID LEVELS AND MCL-1 SPLICING TO INDUCE APOPTOSIS IN ACUTE MYELOID LEUKEMIA” (University of Virginia Patent Foundation, priority 2019, published 2022)
